The test system of experiment [1] is Rattus norvegicus. The experiment can be described thus: Maximum rate of rise of the left ventricular isovolumetric pressure administered at 8 uM/kg iv in anesthetized rats. It counts as functional, Heart left ventricle.
Experiment [2] deals with Rattus norvegicus. Kind of experiment: Tested for the change in diastolic blood pressure administered at 8 ug/kg intravenously in anesthetized rats. It is filed as functional, Artery.
Experiment [3] has as its system Rattus norvegicus. Kind of experiment: Tested for change in heart rate administered at 8 uM/kg iv in anesthetized rats. It is filed as functional.
Experiment [4] deals with Rattus norvegicus. Kind of experiment: Tested for the change in systolic blood pressure administered at 8 ug/kg intravenously in anesthetized rats. It counts as functional, Artery.
The test system of experiment [5] is Rattus norvegicus. The experiment can be described thus: Maximum rate of rise of the left ventricular isovolumetric pressure administered at 5 uM/kg iv in anesthetized rats. It counts as functional, Heart left ventricle.
Experiment [6] concerns Rattus norvegicus. The experiment can be described thus: Tested for the change in diastolic blood pressure administered at 5 ug/kg intravenously in anesthetized rats. It counts as functional, Artery.
For experiment [7], the system named is Rattus norvegicus. Kind of experiment: Tested for the change in systolic blood pressure administered at 5 ug/kg intravenously in anesthetized rats. It counts as functional, Artery.
Experiment [8] deals with Rattus norvegicus. Kind of experiment: Tested for change in heart rate administered at 5 uM/kg iv in anesthetized rats. It counts as functional.
In experiment [9] the test system is Rattus norvegicus. Kind of experiment: Tested for change in heart rate administered at 25 uM/kg iv in anesthetized rats. It counts as functional.
Experiment [10] deals with Rattus norvegicus. The experiment can be described thus: Maximum rate of rise of the left ventricular isovolumetric pressure administered at 25 uM/kg iv in anesthetized rats. It counts as functional, Heart left ventricle.
In experiment [11] the test system is Rattus norvegicus. Kind of experiment: Tested for the change in diastolic blood pressure administered at 25 ug/kg intravenously in anesthetized rats. It counts as functional, Artery.
Experiment [12] has as its system Rattus norvegicus. Kind of experiment: Tested for the change in systolic blood pressure administered at 25 ug/kg intravenously in anesthetized rats. It counts as functional, Artery.
The subject of experiment [13] is Rattus norvegicus. The experiment can be described thus: Maximum rate of rise of the left ventricular isovolumetric pressure administered at 12 uM/kg iv in anesthetized rats. It is filed as functional, Heart left ventricle.
Experiment [14] deals with Rattus norvegicus. The experiment can be described thus: Tested for the change in systolic blood pressure administered at 12 ug/kg intravenously in anesthetized rats. It counts as functional, Artery.
In experiment [15] the test system is Rattus norvegicus. The experiment can be described thus: Tested for change in heart rate administered at 12 uM/kg iv in anesthetized rats. It is filed as functional.
Experiment [16] has as its system Rattus norvegicus. The experiment can be described thus: Tested for the change in diastolic blood pressure administered at 12 ug/kg intravenously in anesthetized rats. It counts as functional, Artery.

`COC(=O)[C@H]1[C@H]2C[C@@H]3c4[nH]c5cc(OC)ccc5c4CCN3C[C@H]2C[C@@H](OC(=O)c2cc(OC)c(OC)c(OC)c2)[C@@H]1OC` [RESERPINE]: the dp/dt in the experiment with Rattus norvegicus [1] is on record as -1580 mmHg s-1. Besides, the Blood pressure is given as -24 mmHg in the experiment with Rattus norvegicus [2] and -31 mmHg in the experiment on Rattus norvegicus [4]. The Heart rate in the experiment with Rattus norvegicus [3] is recorded as -47 beats min-1.

For `COc1ccc(Cc2nccc3cc(OC)c(OC)cc23)cc1OC` [PAPAVERINE], the dp/dt in the experiment with Rattus norvegicus [5] is -604 mmHg s-1. The results for the Blood pressure with Rattus norvegicus [6] and in the experiment with Rattus norvegicus [7] were -18 mmHg and -23 mmHg, respectively. For the same compound, the Heart rate with Rattus norvegicus [8] was -21 beats min-1.

Regarding `N=C(N)NCCN1CCCCCCC1` [GUANETHIDINE], the Heart rate in the experiment on Rattus norvegicus [9] is -18 beats min-1. For the same compound, the dp/dt in the experiment with Rattus norvegicus [10] is -863 mmHg s-1. Also, the Blood pressure is reported as -19 mmHg in the experiment on Rattus norvegicus [11] and -27 mmHg in the experiment on Rattus norvegicus [12].

Turning to `C[N+](C)(C)CCCCCC[N+](C)(C)C.[Cl-].[Cl-]` [HEXAMETHONIUM CHLORIDE], the dp/dt in the experiment on Rattus norvegicus [13] was -4040 mmHg s-1. Further, the Blood pressure is on record as -44 mmHg in the experiment on Rattus norvegicus [14] and -34 mmHg with Rattus norvegicus [16]. The Heart rate in the experiment with Rattus norvegicus [15] is given as -48 beats min-1.

The record behind these values is ChEMBL document CHEMBL1127074, “Novel hypotensive agents from Verbesina caracasana. 2. Synthesis and pharmacology of caracasanamide” (1993).
